Reference: patent US20040191168A1, “Tumor cell killing by cell cycle checkpoint abrogation combined with Inhibition of the classical mitogen activated protein (map) kinase pathway” (priority 2000, published 2004)

Tests used:
Format in all cases: cell-based, human
[1] = tested on: p42/44 MAPK; assay: Phospho-MAPK immunoblot in U937 cells; conditions: UCN-01 150 nM, MEK inhibitor coincubated with UCN-01, 2 h to 18 h
Procedure: Immunoblot and Immunoprecipitation Analysis. Whole-cell pellets were lysed by sonication in 1× sample buffer [62.5 mM Tris base (pH6.8), 2% SDS, 50 mM DTT, 10% glycerol, 0.1% bromphenol blue, and […] each chymostatin, leupeptin, aprotinin, pepstatin, and soybean trypsin inhibitor] and boiled for 5 min. For analysis of phospho-proteins, 1 mM each Na vanadate and Na PPi was added to the sample buffer. Protein samples were collected from the supernatant after centrifugation of the samples at 12,800 3 g for 5 min, and protein was quantified using Coomassie Protein Assay Reagent (Pierce, Rock-ford, Ill.). Equal amounts of protein ([…]) were separated by SDS-PAGE and electrotransferred onto a nitrocellulose membrane. For blotting phospho-proteins, no SDS was included in the transfer buffer. The blots were blocked with 5% milk in PBS-Tween 20 (0.1%) at room temperature for 1 h and probed with the appropriate dilution of primary antibody overnight at 4° C. The blots were washed twice in PBS-Tween 20 for 15 min and then incubated with a 1:2000 dilution of horseradish peroxidase-conjugated secondary antibody (Kirkegaard & Perry, Gaithersburg, Md.) in 5% milk/PBS-Tween 20 at room temperature for 1 h. […] Protein samples were centrifuged at 12,800×g for 30 min and quantified. […]

[2] = tested on: MAPK/ERK; assay: p42 MAPK immune complex kinase assay in carcinoma cells; conditions: MCF7, MDA-MB-231, T47D and DU145 cells; UCN-01 150 nM; MEK1/2 inhibitors (PD98059 25 μM, PD184352 10 μM, U0126 5 μM) given with UCN-01
Procedure: Immunoprecipitations from Lysates. Fifty microliters of Protein A agarose (Ag) slurry (25 μl bead volume) was washed twice with 1 ml PBS containing 0.1% (v/v) Tween 20, and resuspended in 0.1 ml of the same buffer. Antibodies (2 μg, 20 μl), serum (20 μl) were added to each tube and incubated (3 h, 4° C.). For pre-conjugated antibodies,10 μl of slurry (4 μg antibody) was used. Clarified equal aliquots of lysates (0.25 ml, 100 μg total protein) were mixed with Ag-conjugated antibodies in duplicate using gentle agitation (2.5 h, 4° C.). Ag-antibody-antigen complexes were recovered by centrifugation, the supernatant discarded, and washed (10 min) sequentially with 0.5 ml buffer A (twice), PBS and buffer B [25 mM Hepes, pH 7.4, 0.1 mM Na3VO4].
Assay of p42^MAPK activity. Immunoprecipitates were incubated (final volume 50 μl ) with 50 μl of buffer B containing 0.2 mM [γ-^32P]ATP (5000 cpm/pmol), 1 μM Microcystin-LR, 0.5 mg/ml myelin basic protein NP), which initiated reactions at time=0. After 20 min., 40 μl of the reaction mixtures were spotted onto a 2 cm circle of P81 paper (Whatman, Maidstone, England) and immediately placed into 180 mM phosphoric acid. Papers were washed four times (10 min each) with phosphoric acid, and once with acetone, and ^32P-incorporation into MBP was quantified by liquid scintillation spectroscopy.

[3] = tested on: U937 cells; assay: Soft agar clonogenic assay in U937 cells; conditions: agents alone, UCN-01 150 nM, PD184352 10 μM, 18 h
Procedure: Clonogenic Assay and Cell Proliferation Assays. Colony formation after drug treatment was evaluated using a soft agar cloning assay as described previously (Blasina et al, 1999). Briefly, cells were washed three times with serum-free RPMI medium. Subsequently, 500 cells/well were mixed with RPMI medium con-taining 20% FBS and 0.3% agar and plated on 12-well plates (three wells/ condition). The plates were then transferred to a 37° C./5% CO2, fully humid-ified incubator. After 10 days of incubation, colonies, consisting of groups 5 of 50 cells, were scored using an Olympus Model CK inverted microscope, and colony formation for each condition was calculated in relation to values obtained for untreated control cells. For cell viability assays, CellTiter 96 AQueous One Solution (Promega, Madison, Wis.) was used according to the manufacturer's instructions, and the absorbance at 490 nm was recorded using a 96-well plate reader (Molecular Devices, Sunnyvale, Calif.).

| SMILES | phosphorylation (activation) of MAPK [1] | MAPK/ERK activity (immune complex kinase assay) [2] | reduction of clonogenic survival (colony formation) [3] |
| --- | --- | --- | --- |
| O=C(NOCC1CC1)c1ccc(F)c(F)c1Nc1ccc(I)cc1Cl [PD184352] | essentially complete | opposed | 40% |
| CN[C@@H]1C[C@H]2O[C@@](C)([C@@H]1OC)n1c3ccccc3c3c4c(c5c6ccccc6n2c5c31)C(=O)N[C@H]4O [UCN-01, 7-hydroxystaurosporine] | induced phosphorylation (activation) of MAPK | activation of MAPK/ERK was observed | very modest effect |
